# Data as given in PubChem BioAssay (NCI).
#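 Protocol summary: plate cells (96-well), add compound at 5 concentrations, incubate 48 h, interpolate endpoints linearly. GI50: concentration for 50% inhibition of growth. Definition used: TGI = concentration required for complete inhibition of growth.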
# Columns and labels:
# Assay in all cases: DTP human tumour cell line panel, 48 h
# [1] = system: 786-0 renal
# [2] = system: A498 renal
# [3] = system: A549 NSCLC
# [4] = system: ACHN renal
# [5] = system: CAKI-1 renal
# [6] = system: CCRF-CEM leukemia
# [7] = system: COLO 205 colon
# [8] = system: DU-145 prostate
# [9] = system: EKVX NSCLC
# [10] = system: HCC-2998 colon
# [11] = system: HCT-116 colon
# [12] = system: HCT-15 colon
# [13] = system: HL-60(TB) leukemia
# [14] = system: HOP-62 NSCLC
# [15] = system: HOP-92 NSCLC
# [16] = system: HT29 colon
# [17] = system: IGROV1 ovarian
# [18] = system: K-562 leukemia
# [19] = system: KM12 colon
# [20] = system: LOX IMVI melanoma
# [21] = system: M14 melanoma
# [22] = system: MALME-3M melanoma
# [23] = system: MCF7 breast
# [24] = system: MDA-MB-231 breast
# [25] = system: MDA-MB-435
# [26] = system: MOLT-4 leukemia
# [27] = system: NCI-H226 lung
# [28] = system: NCI-H23 lung
# [29] = system: NCI-H460 lung
# [30] = system: NCI-H522 lung
# [31] = system: NCI/ADR-RES ovarian
# [32] = system: OVCAR-3 ovarian
# [33] = system: OVCAR-4 ovarian
# [34] = system: OVCAR-5 ovarian
# [35] = system: OVCAR-8 ovarian
# [36] = system: PC-3 prostate
# [37] = system: RPMI-8226 leukemia
# [38] = system: RXF 393 renal
# [39] = system: SF-268 CNS
# [40] = system: SF-295 CNS
# [41] = system: SF-539 CNS
# [42] = system: SK-MEL-2 melanoma
# [43] = system: SK-MEL-28 melanoma
# [44] = system: SK-MEL-5 melanoma
# [45] = system: SK-OV-3 ovarian
# [46] = system: SN12C renal
# [47] = system: SNB-19 CNS
# [48] = system: SNB-75 CNS
# [49] = system: SR leukemia
# [50] = system: SW-620 colon
# [51] = system: T-47D breast
# [52] = system: TK-10 renal
# [53] = system: U251 CNS
# [54] = system: UACC-257 melanoma
# [55] = system: UACC-62 melanoma
# [56] = system: UO-31 renal
structure (smiles),measurement,setting,value
COc1cc(C2CC(c3ccc(SC)cc3)=NN2C(C)=O)cc(OC)c1OC (configuration not stated),GI50,[1],14.1 µM
same,TGI,[1],70.4 µM
same,GI50,[2],12.6 µM
same,TGI,[2],49.3 µM
same,GI50,[3],9.63 µM
same,TGI,[3],> 100 µM
same,GI50,[4],18.2 µM
same,TGI,[4],> 100 µM
same,GI50,[5],7.11 µM
same,TGI,[5],70 µM
same,GI50,[6],9.49 µM
same,TGI,[6],> 100 µM
same,GI50,[7],5.38 µM
same,TGI,[7],21.6 µM
same,GI50,[8],16.5 µM
same,TGI,[8],50.6 µM
same,GI50,[9],17.7 µM
same,TGI,[9],> 100 µM
same,GI50,[10],12.1 µM
same,TGI,[10],38.7 µM
same,GI50,[11],4.28 µM
same,TGI,[11],21 µM
same,GI50,[12],5.09 µM
same,TGI,[12],> 100 µM
same,GI50,[13],2.68 µM
same,TGI,[13],12.1 µM
same,GI50,[14],16.1 µM
same,TGI,[14],66.3 µM
same,GI50,[15],16 µM
same,TGI,[15],97.1 µM
same,GI50,[16],4.2 µM
same,TGI,[16],> 100 µM
same,GI50,[17],6.38 µM
same,TGI,[17],> 100 µM
same,GI50,[18],3.47 µM
same,TGI,[18],20.8 µM
same,GI50,[19],3.89 µM
same,TGI,[19],44.9 µM
same,GI50,[20],7.1 µM
same,TGI,[20],> 100 µM
same,GI50,[21],3.91 µM
same,TGI,[21],38.4 µM
same,GI50,[22],53.6 µM
same,TGI,[22],> 100 µM
same,GI50,[23],4.47 µM
same,TGI,[23],77.5 µM
same,GI50,[24],20.1 µM
same,TGI,[24],> 100 µM
same,GI50,[25],1.95 µM
same,TGI,[25],5.55 µM
same,GI50,[26],5.2 µM
same,TGI,[26],> 100 µM
same,GI50,[27],19.8 µM
same,TGI,[27],45.6 µM
same,GI50,[28],24.3 µM
same,TGI,[28],> 100 µM
same,GI50,[29],4.14 µM
same,TGI,[29],16.9 µM
same,GI50,[30],23.8 µM
same,TGI,[30],> 100 µM
same,GI50,[31],7.56 µM
same,TGI,[31],> 100 µM
same,GI50,[32],3.76 µM
same,TGI,[32],22.8 µM
same,GI50,[33],34.2 µM
same,TGI,[33],> 100 µM
same,GI50,[34],44.5 µM
same,TGI,[34],> 100 µM
same,GI50,[35],25.2 µM
same,TGI,[35],> 100 µM
same,GI50,[36],16.2 µM
same,TGI,[36],> 100 µM
same,GI50,[37],6.51 µM
same,TGI,[37],96 µM
same,GI50,[38],13.2 µM
same,TGI,[38],43.6 µM
same,GI50,[39],11.9 µM
same,TGI,[39],> 100 µM
same,GI50,[40],1.23 µM
same,TGI,[40],4.64 µM
same,GI50,[41],10 µM
same,TGI,[41],38 µM
same,GI50,[42],10.5 µM
same,TGI,[42],60.3 µM
same,GI50,[43],16.6 µM
same,TGI,[43],> 100 µM
same,GI50,[44],4.04 µM
same,TGI,[44],16.1 µM
same,GI50,[45],17.1 µM
same,TGI,[45],95.9 µM
same,GI50,[46],28.5 µM
same,TGI,[46],> 100 µM
same,GI50,[47],7.04 µM
same,TGI,[47],> 100 µM
same,GI50,[48],4.99 µM
same,TGI,[48],50.9 µM
same,GI50,[49],1.94 µM
same,TGI,[49],14.2 µM
same,GI50,[50],4.49 µM
same,TGI,[50],> 100 µM
same,GI50,[51],8.9 µM
same,TGI,[51],> 100 µM
same,GI50,[52],22.9 µM
same,TGI,[52],78.1 µM
same,GI50,[53],7.27 µM
same,TGI,[53],> 100 µM
same,GI50,[54],42 µM
same,TGI,[54],> 100 µM
same,GI50,[55],9.86 µM
same,TGI,[55],> 100 µM
same,GI50,[56],15.9 µM
same,TGI,[56],77.4 µM
